Values after ≈ are worked out from the molar mass of the structure shown.
Tests used:
[1] = Cyclic voltammogram of the hydroquinone pentamer (redox potential); format: physicochemical; conditions: glassy carbon working electrode, Ag/AgCl (3 M sodium chloride solution) reference, platinum wire counter electrode, sweep rate 25 mV/sec
Excerpt: A cyclic voltammogram of the hydroquinone pentamer thus obtained was obtained. The measurement was made using a 5-mm diameter glassy carbon as the working electrode, Ag/AgCl (3 M sodium chloride solution) as the reference electrode, and platinum wire as the counter electrode at a sweep rate of 25 mV/sec.

[2] = Solubility of the hydroquinone pentamer; format: physicochemical; conditions: per hydroquinone unit

Which redox potential [1] does the source give for `Oc1cc2c(O)cc1Cc1cc(O)c(cc1O)Cc1cc(O)c(cc1O)Cc1cc(O)c(cc1O)Cc1cc(O)c(cc1O)C2` [hydroquinone pentamer] here?
Its redox potential is -0.75 V vs. SHE.

And the solubility [2]?
The solubility was 1800 mM (≈ 1100 mg/mL).

Source: patent US20230299326A1, “REDOX FLOW BATTERY” (MITSUBISHI HEAVY INDUSTRIES, LTD., priority 2020, published 2023)
